Data as given in the Bradley open melting point set (2014).

Row | Structure (SMILES) | melting point [°C]
1 | CCCCCCCCCCCCCCCCCCCCCCCCCCCCCC [N-triacontane] | 67
2 | CCCCCCCCCCCCCCCCCCCCCCC [N-tricosane] | 49
3 | CCCCCCCCCCCCCCCCCCC [Nonadecane] | 33
4 | CCCCCCCCC [Nonane] | -53
5 | CC1C=CC=CCCC=CC=CC=CC=CC(OC2O[C@H](C)[C@@H](O)[C@H](N)[C@@H]2O)CC(O)C(C(=O)O)C(O)CC(=O)CC(O)C(O)CCC(O)CC(O)CC(O)CC(=O)OC(C)C(C)C1O (stereo not given in full) [Nystatin] | 160
6 | Cc1cc(C=O)c(C)n1-c1cc(C(F)(F)F)cc(C(F)(F)F)c1 [OSM-S-36] | 95.5
7 | Cc1cc(/C=C2\S/C(=N\c3ccccc3)N(c3ccccc3)C2=O)c(C)n1-c1ccc(C(F)(F)F)cc1 [OSM-S-52] | 226
8 | ClC(Cl)=C(Cl)c1c(Cl)c(Cl)c(Cl)c(Cl)c1Cl [Octachlorostyrene] | 95
9 | CC1COc2c(N3CCN(C)CC3)c(F)cc3c(=O)c(C(=O)O)cn1c23 (stereo not given) [Ofloxacin] | 254
10 | COc1ccc2[nH]c([S+]([O-])Cc3ncc(C)c(OC)c3C)nc2c1 (stereo not given) [Omeprazole] | 156
11 | C1CO1 [Oxirane] | -111
12 | O=S(=O)=O [Oxosulfane dioxide] | 16.8
13 | Clc1ccc(-c2cc(Cl)ccc2Cl)cc1 [PCB-31] | 65
14 | Clc1ccc(-c2cc(Cl)c(Cl)cc2Cl)cc1Cl [PCB-118] | 110
15 | Clc1cc(Cl)c(-c2cc(Cl)c(Cl)cc2Cl)cc1Cl [PCB-153] | 103
16 | Clc1cc(Cl)c(-c2cc(Cl)c(Cl)c(Cl)c2Cl)cc1Cl [PCB-180] | 112
17 | Clc1cc(-c2cc(Cl)c(Cl)c(Cl)c2Cl)c(Cl)c(Cl)c1Cl [PCB-194] | 157
18 | C=CCCC [Pent-1-ene] | -165
19 | O=[N+]([O-])c1c(Cl)c(Cl)c(Cl)c(Cl)c1Cl [Pentachloronitrobenzene] | 144

Row | Structure (SMILES) | melting point [°C]
20 | Oc1c(Cl)c(Cl)c(Cl)c(Cl)c1Cl [Pentachlorophenol] | 174
21 | Cc1c(Cl)c(Cl)c(Cl)c(Cl)c1Cl [Pentachlorotoluene] | 225
22 | O=C(O)C(F)(F)C(F)(F)C(F)(F)C(F)(F)C(F)(F)C(F)(F)C(F)(F)F [Pentadecafluorooctanoic acid] | 55.5
23 | OCC(CO)(CO)CO [Pentaerythritol] | 260
24 | CC(=O)CC(C)=O [Pentane-2,4-dione] | -23
25 | CCCCC [Pentane] | -130
26 | [O-][I+3]([O-])([O-])O [Periodic acid] | 122
27 | CCC1(c2ccccc2)C(=O)NC(=O)NC1=O [Phenobarbital] | 176
28 | O=c1[nH]c2ccccc2n1C1CCN(CCCC(c2ccc(F)cc2)c2ccc(F)cc2)CC1 [Pimozide] | 216
29 | CC(Cc1ccccc1)NCCC(c1ccccc1)c1ccccc1 (stereo not given) [Prenylamine] | 36.5
30 | CC(=O)[C@H]1CC[C@H]2[C@@H]3CCC4=CC(=O)CC[C@]4(C)[C@H]3CC[C@]12C [Progesterone] | 121
31 | CCC(=O)O [Propionic acid] | -20.8
32 | CCCOC(C)=O [Propyl Acetate] | -93
33 | CCCOC(C)=O [Propyl acetate] | -95
34 | C=CC [Propylene] | -185
35 | NCCCCN [Putrescine] | 27.5
36 | c1cc2ccc3cccc4ccc(c1)c2c34 [Pyrene] [listing 1 of 2 here] | 151
37 | c1cc2ccc3cccc4ccc(c1)c2c34 [Pyrene] [listing 2 of 2 here] | 150
38 | [O-][n+]1ccccc1S [Pyridine-2-thiol 1-oxide] | 70.5

Row | Structure (SMILES) | melting point [°C]
39 | Oc1cccc2cccnc12 [Quinolin-8-ol] | 76
40 | CC(C)(C)NC(=O)[C@@H]1CC2CCCCC2CN1C[C@@H](O)[C@H](Cc1ccccc1)NC(=O)[C@H](CC(N)=O)NC(=O)c1ccc2ccccc2n1 (stereo not given in full) [Saquinavir] | 350
41 | CCC(C)(C)C(=O)O[C@H]1C[C@@H](C)C=C2C=C[C@H](C)[C@H](CC[C@@H]3C[C@@H](O)CC(=O)O3)[C@H]21 [Simvastatin] | 136
42 | CC(=O)S[C@@H]1CC2=CC(=O)CC[C@]2(C)[C@H]2CC[C@@]3(C)[C@@H](CC[C@@]34CCC(=O)O4)[C@H]12 [Spironolactone] | 134
43 | O=C(O)CCC(=O)O [Succinic acid] | 186
44 | COc1cc(NS(=O)(=O)c2ccc(N)cc2)nc(OC)n1 [Sulfadimethoxine] | 204
45 | O=C(O)CS [Sulfanylacetic acid] | -16.5
46 | O=S(=O)(O)O [Sulfuric acid] | -2
47 | O=C5\C=C4/C(C3CCC2(C(CCC2OC(=O)c1ccccc1)C3CC4)C)(C)CC5 (stereo not given) [Testosterone benzoate] | 195
48 | C=CCCCCCCCCCCCC [Tetradec-1-ene] | -13
49 | C1CCSC1 [Tetrahydrothiophene] | -96
50 | Cn1c(=O)c2[nH]cnc2n(C)c1=O [Theophylline] | 270
51 | CNC(=O)N(C)c1nnc(C(F)(F)F)s1 [Thiazafluron] | 136
52 | CCCCOB(OCCCC)OCCCC [Tributyl borate] | -70
53 | CCCCP(CCCC)CCCC [Tributylphosphine] | -60
54 | CCCCCCCCCCCCCCCCCCCCCCC [Tricosane] | 49
55 | O=C(O)C(F)(F)C(F)(F)C(F)(F)C(F)(F)C(F)(F)C(F)(F)F [Tridecafluoroheptanoic acid] | 30
56 | CCOP(=O)(OCC)OCC [Triethyl phosphate] | -56

Further lines, results first:

Row | melting point [°C] | Structure (SMILES)
57 | 187 | O=C(O)c1ccccc1Nc1ccccc1 [N-phenylanthranilic acid]
58 | 196 | O=C(O)CN1C(=O)c2ccccc2C1=O [N-phthaloylglycine]
59 | 151 | C#CCON1C(=O)c2ccccc2C1=O [N-propargyloxyphthalimide]
60 | 150 | C#CCN1C(=O)c2ccccc2C1=O [N-propargylphthalimide]
61 | 10 | CCCCCCCCCCCCCc1ccccc1 [N-tridecylbenzene]
62 | 113 | CC(=O)Nc1ccccc1/C=C/c1ccccc1 [N-{2-[(E)-2-phenylethenyl]phenyl}acetamide]
63 | 130 | NC(=O)c1cccnc1 [Nicotinamide]
64 | 237 | O=C(O)c1cccnc1 [Nicotinic acid]
65 | 173 | COC(=O)C1=C(C)NC(C)=C(C(=O)OC)C1c1ccccc1[N+](=O)[O-] [Nifedipine]
66 | 278 | Cc1cc(/C=C2\SC(=Nc3ccccc3)N=C2O)c(C)n1-c1ccc(F)cc1 [OSM-S-10]
67 | 168 | Cc1c(C(=O)O)cnn1-c1ccccc1 [OSM-S-24]
68 | 73 | Cc1cc(/C=C2\S/C(=N\c3ccccc3)N(CC#N)C2=O)c(C)n1-c1ccc(C(F)(F)F)cc1 [OSM-S-43]
69 | 113 | CCOC(=O)c1ccc(-n2c(C)cc(C=O)c2C)cc1 [OSM-S-46]
70 | 176 | O=C1CS/C(=N\c2ccccc2)N1c1ccccc1 [OSM-S-47]
71 | 257 | CC(=O)N(C1=NC(=O)/C(=C/c2cc(C)n(-c3ccc(C)cc3)c2C)S1)c1ccccc1 [OSM-S-50]
72 | 183 | CN(C)[C@@H]1C(O)=C(C(N)=O)C(=O)[C@@]2(O)C(O)=C3C(=O)c4c(O)cccc4[C@@](C)(O)[C@H]3[C@H](O)[C@@H]12 [Oxytetracycline]
73 | 185 | COc1ccc(C(=O)O)cc1 [P-Anisic Acid]
74 | 113 | Oc1cc(Cl)c(-c2c(Cl)cc(Cl)cc2Cl)c(Cl)c1O [PCB-155]
75 | 135 | CCOc1ccc(NC(C)=O)cc1 [Phenacetin]
76 | 142 | CNC[C@H](O)c1cccc(O)c1 [Phenylephrine]
77 | 142 | O=C(NC(C(=O)O)c1ccccc1)OCC(Cl)(Cl)Cl (stereo not given) [Phenyl{[(2,2,2-trichloroethoxy)carbonyl]amino}acetic acid]
78 | 230 | O=C(O)c1ccccc1C(=O)O [Phthalic Acid]

Row | melting point [°C] | Structure (SMILES)
79 | 198 | CN1/C(=C(\O)Nc2ccccn2)C(=O)c2ccccc2S1(=O)=O [Piroxicam]
80 | 195 | CCCN(CCC)S(=O)(=O)c1ccc(C(=O)O)cc1 [Probenecid]
81 | 116 | N#Cc1ccc2c(c1)N(CCCN1CCC(O)CC1)c1ccccc1S2 [Propericiazine]
82 | 96.5 | CCCOC(=O)c1ccc(O)cc1 [Propyl 4-hydroxybenzoate]
83 | 192 | NC(=O)c1cnccn1 [Pyrazinamide]
84 | 205 | Cc1ncc(COP(=O)(O)O)c(C=O)c1O [Pyridoxal Phosphate]
85 | 105 | Oc1ccccc1O [Pyrocatechol]
86 | 111 | Oc1cccc(O)c1 [Resorcinol]
87 | 168 | Cc1ccc(S(=O)(=O)N=S(C)(C)=O)cc1 [S,S-dimethyl-N-(p-toluenesulfonyl)sulfoximine]
88 | 158 | O=C(O)c1ccccc1O [Salicyclic acid]
89 | 161 | O=C(O)c1ccccc1O [Salicylic acid]
90 | 183 | CC(=O)NS(=O)(=O)c1ccc(N)cc1 [Sulfacetamide]
91 | 235 | Cc1ccnc(NS(=O)(=O)c2ccc(N)cc2)n1 [Sulfamerazine]
92 | 182 | COc1ccc(NS(=O)(=O)c2ccc(N)cc2)nn1 [Sulfamethoxypyridazine]
93 | 170 | COc1nccnc1NS(=O)(=O)c1ccc(N)cc1 [Sulfametopyrazine]
94 | 243 | Cc1cc(NS(=O)(=O)c2ccc(N)cc2)nc(C)n1 [Sulfisomidine]
95 | 194 | Cc1noc(NS(=O)(=O)c2ccc(N)cc2)c1C [Sulfisoxazole]
96 | 270 | O=C1CCC(N2C(=O)c3ccccc3C2=O)C(=O)N1 (stereo not given) [Thalidomide]
97 | 211 | O=c1c2ccccc2sc2ccccc12 [Thioxanthen-9-one]
98 | 128 | CCCCNC(=O)NS(=O)(=O)c1ccc(C)cc1 [Tolbutamide]
99 | 164 | Cc1cccc(Nc2ccncc2S(=O)(=O)NC(=O)NC(C)C)c1 [Torasemide]
100 | 276 | C[C@]12C=CC(=O)C=C1CC[C@H]1[C@@H]3C[C@@H](O)[C@](O)(C(=O)CO)[C@@]3(C)C[C@H](O)[C@@]12F [Triamcinolone]
